From PMC5608427, “Convergent evolution involving dimeric and trimeric dUTPases in pathogenicity island mobilization” (PLoS Pathogens, 2017) come the findings set out here.

Assay [1] concerns the target T1, ϕDI Dut (dimeric dUTPase) (Staphylococcus aureus, UniProt A0A2D0TC87).
T1 construct: His-tagged, pET-28a, E. coli BL21(DE3); homodimer; eight helices, residues 7-163 in helices
The assay is described as follows: X-ray crystallography, […] Å. Format: binding. The settings on record: Mg2+; active site, two Mg2+ per nucleotide.

The target in assay [2] is T2, ϕDI Dut-Stl complex (Staphylococcus aureus, UniProt A0A2D0TC87).
T2 construct: His-tagged Dut and purified Stl, E. coli; 1:1 molar ratio of Dut and Stl; with SaPIbov1 master repressor Stl (Staphylococcus aureus pathogenicity island SaPIbov1)
Description: Native-PAGE, disruption of Dut-Stl complex. The settings on record: equimolar Dut and Stl (17 μM); 4°C electrophoresis; competes with Stl binding to Dut. From the text:
Native-PAGE, disruption of Dut-Stl complex on ϕDI Dut-Stl complex | competing away the dimeric ϕDI Dut from binding to the SaPI Stl repressor, with an IC50

Assay [3] concerns the target T1, ϕDI Dut (dimeric dUTPase). The assay is described as follows: isothermal titration calorimetry. Format: binding. The settings on record: 50 mM HEPES pH 7.5, 250 mM NaCl, 5 mM MgCl2, 25°C; single-site model; read-out: dissociation constant. From the text: isothermal titration calorimetry on ϕDI Dut (dimeric dUTPase) | used to calculate the dissociation constant of ϕDI and ϕDI^A73L Duts against dUPNPP
On the technique in general: Isothermal titration calorimetry measures the heat released or taken up as one component is titrated into another.

For assay [4], the target named is T2, ϕDI Dut-Stl complex. Description: Native-PAGE, disruption of Dut-Stl complex. The settings on record: equimolar Dut and Stl; dUMP up to 1 mM. It counts as binding.
The target in assay [5] is SaPIbov1-encoded Stl repressor (Staphylococcus aureus (pathogenicity island SaPIbov1)). Description: native gel or EMSA. On the technique in general: In EMSA bound probe runs differently from free probe, usually more slowly.
Assay [6] concerns T3, ϕ55 Dut (dimeric dUTPase).
T3 construct: His-tagged, pET-28a, E. coli BL21(DE3)
The assay is described as follows: Malachite Green phosphate assay. It counts as biochemical, Staphylococcus phage 55. Particulars: 3-400 μM dUTP; 25°C; free Dut, no Stl; decimal comma (13.6). From the text:
Malachite Green phosphate assay on ϕ55 Dut (dimeric dUTPase)

For assay [7], the system named is T4, ϕNM1 Dut (dimeric dUTPase).
T4 construct: His-tagged, pET-28a, E. coli BL21(DE3)
Description: Malachite Green phosphate assay. Format: biochemical, Staphylococcus phage phiNM1. The settings on record: 3-400 μM dUTP; 25°C; free Dut, no Stl; decimal comma (17.5). From the text:
Malachite Green phosphate assay on ϕNM1 Dut (dimeric dUTPase)

Assay [8] has as its system T5, ϕO11 Dut (dimeric dUTPase).
T5 construct: His-tagged, pET-28a, E. coli BL21(DE3); not the trimeric Dut of phage ϕ11
Description: Malachite Green phosphate assay. Format: biochemical, Staphylococcus phage phiO11. Particulars: 3-400 μM dUTP; 25°C; free Dut, no Stl; decimal comma (17.4). From the text: Malachite Green phosphate assay on ϕO11 Dut (dimeric dUTPase)

Assay [9] concerns T6, ϕDII Dut (dimeric dUTPase).
T6 construct: His-tagged, pET-28a, E. coli BL21(DE3)
Description: Malachite Green phosphate assay. Format: biochemical, Staphylococcus phage phiDII. The settings on record: 3-400 μM dUTP; 25°C; free Dut, no Stl; decimal comma (11.1). From the text:
Malachite Green phosphate assay on ϕDII Dut (dimeric dUTPase)

A word on the IC50: it is the concentration that inhibits the measured activity by half. Read a high IC50 as weaker potency. `O=c1ccn([C@H]2C[C@H](O)[C@@H](COP(=O)(O)NP(=O)(O)OP(=O)(O)O)O2)c(=O)[nH]1` [dUPNPP, 2-Deoxyuridine-5-[(α,β)-imido]triphosphate]: the “X-ray crystallography, 2.1 Å” value in assay [1] is “structure of the ϕDI Dut in complex with dUPNPP”. The compound also came in with an IC50 on ϕDI Dut-Stl complex [2] of 13.9 µM. The Kd in assay [3] came to 4.9 µM.

Take `O=c1ccn([C@H]2C[C@H](O)[C@@H](COP(=O)(O)O)O2)c(=O)[nH]1` [dUMP]: the “Native-PAGE, disruption of Dut-Stl complex” value at ϕDI Dut-Stl complex [4] is on record as “only a weak reduction in ϕDI Dut-Stl binding was observed”.

Regarding “dimeric dUTPase (Dut) from S. aureus phage ϕO11 (enzyme)”, the stoichiometry N (Dut:Stl molar ratio) in [5] stood at 1.

As usually defined, the Km is the concentration of substrate that gives half-maximal velocity. Turning to `O=c1ccn([C@H]2C[C@H](O)[C@@H](COP(=O)(O)OP(=O)(O)OP(=O)(O)O)O2)c(=O)[nH]1` [dUTP], the Km worked out at 13.6 µM in assay [6], 17.5 µM in [7], 17.4 µM in assay [8] and 11.1 µM in assay [9].

Turning to “dimeric dUTPase (Dut) from S. aureus phage ϕDI (enzyme)”, in assay [5], the stoichiometry N (Dut:Stl molar ratio) was found to be 1.
